Test results taken from PubChem BioAssay AID1259407 (Chemical Carcinogenesis Research Information System (CCRIS), 2018).
Active and inactive are the calls of the source. The rule behind the calls is not given here.

Tested on: CCRIS mutagenicity, Ames/micronucleus/aberration tests
Assay: CCRIS mutagenicity studies
[1] = Test System: AMES SALMONELLA TYPHIMURIUM, Strain/Indicator: TA98, Metabolic Activation: NONE, Method: PREINCUBATION
[2] = Test System: AMES SALMONELLA TYPHIMURIUM, Strain/Indicator: TA98, Metabolic Activation: NONE, Method: STANDARD PLATE
[3] = Test System: AMES SALMONELLA TYPHIMURIUM, Strain/Indicator: TA98, Metabolic Activation: RAT, LIVER, S-9, AROCLOR 1254, Method: STANDARD PLATE
[4] = Test System: AMES SALMONELLA TYPHIMURIUM, Strain/Indicator: TA100, Metabolic Activation: NONE, Method: PREINCUBATION
[5] = Test System: AMES SALMONELLA TYPHIMURIUM, Strain/Indicator: TA100, Metabolic Activation: NONE, Method: STANDARD PLATE
[6] = Test System: AMES SALMONELLA TYPHIMURIUM, Strain/Indicator: TA100, Metabolic Activation: RAT, LIVER, S-9, AROCLOR 1254, Method: STANDARD PLATE
[7] = Test System: AMES SALMONELLA TYPHIMURIUM, Strain/Indicator: TA1535, Metabolic Activation: NONE, Method: PREINCUBATION
[8] = Test System: AMES SALMONELLA TYPHIMURIUM, Strain/Indicator: TA1535, Metabolic Activation: NONE, Method: STANDARD PLATE
[9] = Test System: AMES SALMONELLA TYPHIMURIUM, Strain/Indicator: TA1535, Metabolic Activation: RAT, LIVER, S-9, AROCLOR 1254, Method: STANDARD PLATE
[10] = Test System: AMES SALMONELLA TYPHIMURIUM, Strain/Indicator: TA1537, Metabolic Activation: NONE, Method: PREINCUBATION
[11] = Test System: AMES SALMONELLA TYPHIMURIUM, Strain/Indicator: TA1537, Metabolic Activation: NONE, Method: STANDARD PLATE
[12] = Test System: AMES SALMONELLA TYPHIMURIUM, Strain/Indicator: TA1537, Metabolic Activation: RAT, LIVER, S-9, AROCLOR 1254, Method: STANDARD PLATE
[13] = Test System: AMES SALMONELLA TYPHIMURIUM, Strain/Indicator: TA1538, Metabolic Activation: NONE, Method: STANDARD PLATE
[14] = Test System: AMES SALMONELLA TYPHIMURIUM, Strain/Indicator: TA1538, Metabolic Activation: RAT, LIVER, S-9, AROCLOR 1254, Method: STANDARD PLATE

With `Nc1ccccc1[N+](=O)[O-]` the mutagenic call (End Point: IN VITRO CHROMOSOMAL ABERRATIONS, Test System: CHL CELLS, Metabolic Activation: RAT, LIVER, S-9, SODIUM PHENOBARBITAL AND 5,6-BENZOFLAVONE) was “active; positive (structural changes)”, the mutagenic call (End Point: IN VITRO MICRONUCLEUS, Test System: CHL/IU CELLS, Metabolic Activation: NONE) was “inactive; negative” and the mutagenic call (Test System: AMES SALMONELLA TYPHIMURIUM, Strain/Indicator: TA97, Metabolic Activation: NONE) was “inactive; negative”. For the same compound, the mutagenic call (Test System: AMES SALMONELLA TYPHIMURIUM, Strain/Indicator: TA97, Metabolic Activation: RAT, LIVER, S-9, AROCLOR 1254) was “inactive; negative”, the mutagenic call (Test System: AMES SALMONELLA TYPHIMURIUM, Strain/Indicator: TA98, Metabolic Activation: HAMSTER, LIVER, S-9, AROCLOR 1254, FLAVIN MONONUCLEOTIDE, Method: PREINCUBATION) was “active; positive” and the mutagenic call (Test System: AMES SALMONELLA TYPHIMURIUM, Strain/Indicator: TA98, Metabolic Activation: HAMSTER, LIVER, S-9, AROCLOR 1254, Method: PREINCUBATION) was “inactive; negative”. The mutagenic call (Test System: AMES SALMONELLA TYPHIMURIUM, Strain/Indicator: TA98, Metabolic Activation: NONE) was “inactive; negative”, the mutagenic call [1] was “inactive; negative” and the mutagenic call [2] was “inactive; negative”. The mutagenic call (Test System: AMES SALMONELLA TYPHIMURIUM, Strain/Indicator: TA98, Metabolic Activation: RAT, LIVER, S-9, AROCLOR 1254) was “inactive; negative”, the mutagenic call (Test System: AMES SALMONELLA TYPHIMURIUM, Strain/Indicator: TA98, Metabolic Activation: RAT, LIVER, S-9, AROCLOR 1254, FLAVIN MONONUCLEOTIDE, Method: PREINCUBATION) was “inactive; negative” and the mutagenic call [3] was “inactive; negative”. The mutagenic call (Test System: AMES SALMONELLA TYPHIMURIUM, Strain/Indicator: TA98, Metabolic Activation: RAT, LIVER, S-9, KANECHLOR 500, Method: PREINCUBATION) was “inactive; negative”, the mutagenic call (Test System: AMES SALMONELLA TYPHIMURIUM, Strain/Indicator: TA98, Method: PREINCUBATION) was “inactive; negative” and the mutagenic call (Test System: AMES SALMONELLA TYPHIMURIUM, Strain/Indicator: TA100, Metabolic Activation: NONE) was “inactive; negative”. The mutagenic call [4] was “inactive; negative”, the mutagenic call [5] was “inactive; negative” and the mutagenic call (Test System: AMES SALMONELLA TYPHIMURIUM, Strain/Indicator: TA100, Metabolic Activation: RAT, LIVER, S-9, AROCLOR 1254) was “inactive; negative”. For the same compound, the mutagenic call [6] was “inactive; negative”, the mutagenic call (Test System: AMES SALMONELLA TYPHIMURIUM, Strain/Indicator: TA100, Metabolic Activation: RAT, LIVER, S-9, KANECHLOR 500, Method: PREINCUBATION) was “inactive; negative” and the mutagenic call (Test System: AMES SALMONELLA TYPHIMURIUM, Strain/Indicator: TA100, Method: PREINCUBATION) was “inactive; negative”. The mutagenic call (Test System: AMES SALMONELLA TYPHIMURIUM, Strain/Indicator: TA102, Metabolic Activation: NONE) was “inactive; negative”, the mutagenic call (Test System: AMES SALMONELLA TYPHIMURIUM, Strain/Indicator: TA102, Metabolic Activation: RAT, LIVER, S-9, AROCLOR 1254) was “inactive; negative” and the mutagenic call [7] was “inactive; negative”. The mutagenic call [8] was “inactive; negative”, the mutagenic call [9] was “inactive; negative” and the mutagenic call (Test System: AMES SALMONELLA TYPHIMURIUM, Strain/Indicator: TA1535, Method: PREINCUBATION) was “inactive; negative”. The mutagenic call [10] was “inactive; negative”, the mutagenic call [11] was “inactive; negative” and the mutagenic call [12] was “inactive; negative”. For the same compound, the mutagenic call (Test System: AMES SALMONELLA TYPHIMURIUM, Strain/Indicator: TA1537, Method: PREINCUBATION) was “inactive; negative”, the mutagenic call (Test System: AMES SALMONELLA TYPHIMURIUM, Strain/Indicator: TA1538, Metabolic Activation: NONE, Method: PREINCUBATION) was “inactive; negative” and the mutagenic call [13] was “inactive; negative”. For the same compound, the mutagenic call [14] was “inactive; negative”, the mutagenic call (Test System: AMES SALMONELLA TYPHIMURIUM, Strain/Indicator: TA1538, Method: PREINCUBATION) was “inactive; negative” and the mutagenic call (Test System: UDS RODENT HEPATOCYTES, Strain/Indicator: THY INCORP (NON-S-PHASE), Metabolic Activation: NONE, Method: AUTORADIOGRAPHY) was “inactive; negative”.
In the case of `NCCCN`, the mutagenic call (Test System: AMES SALMONELLA TYPHIMURIUM, Strain/Indicator: TA98, Metabolic Activation: HAMSTER, LIVER, S-9, AROCLOR 1254 (10%), Method: PREINCUBATION) is reported as “inactive; negative”, the mutagenic call [1] is reported as “inactive; negative” and the mutagenic call (Test System: AMES SALMONELLA TYPHIMURIUM, Strain/Indicator: TA98, Metabolic Activation: RAT, LIVER, S-9, AROCLOR 1254 (10%), Method: PREINCUBATION) is reported as “inactive; negative”. For the same compound, the mutagenic call (Test System: AMES SALMONELLA TYPHIMURIUM, Strain/Indicator: TA100, Metabolic Activation: HAMSTER, LIVER, S-9, AROCLOR 1254 (10%), Method: PREINCUBATION) was “inactive; negative”, the mutagenic call [4] was “inactive; negative” and the mutagenic call (Test System: AMES SALMONELLA TYPHIMURIUM, Strain/Indicator: TA100, Metabolic Activation: RAT, LIVER, S-9, AROCLOR 1254 (10%), Method: PREINCUBATION) was “inactive; negative”. The mutagenic call (Test System: AMES SALMONELLA TYPHIMURIUM, Strain/Indicator: TA1535, Metabolic Activation: HAMSTER, LIVER, S-9, AROCLOR 1254 (10%), Method: PREINCUBATION) was “inactive; negative”, the mutagenic call [7] was “inactive; negative” and the mutagenic call (Test System: AMES SALMONELLA TYPHIMURIUM, Strain/Indicator: TA1535, Metabolic Activation: RAT, LIVER, S-9, AROCLOR 1254 (10%), Method: PREINCUBATION) was “inactive; negative”. For the same compound, the mutagenic call (Test System: AMES SALMONELLA TYPHIMURIUM, Strain/Indicator: TA1537, Metabolic Activation: HAMSTER, LIVER, S-9, AROCLOR 1254 (10%), Method: PREINCUBATION) was “inactive; negative”, the mutagenic call [10] was “inactive; negative” and the mutagenic call (Test System: AMES SALMONELLA TYPHIMURIUM, Strain/Indicator: TA1537, Metabolic Activation: RAT, LIVER, S-9, AROCLOR 1254 (10%), Method: PREINCUBATION) was “inactive; negative”.
With `Nc1ccc(Cl)c(C(F)(F)F)c1` the mutagenic call [2] was “inactive; negative”, the mutagenic call [3] was “inactive; negative” and the mutagenic call [5] was “inactive; negative”. The mutagenic call [6] was “inactive; negative”, the mutagenic call [8] was “inactive; negative” and the mutagenic call [9] was “inactive; negative”. For the same compound, the mutagenic call [11] was “inactive; negative”, the mutagenic call [12] was “inactive; negative” and the mutagenic call [13] was “inactive; negative”. The mutagenic call [14] was “inactive; negative”.
In the case of `S=C1SSC2=NCCN12`, the mutagenic call (Test System: AMES SALMONELLA TYPHIMURIUM, Strain/Indicator: TA97, Metabolic Activation: NONE, Method: STANDARD PLATE) is reported as “inactive; negative”, the mutagenic call (Test System: AMES SALMONELLA TYPHIMURIUM, Strain/Indicator: TA97, Metabolic Activation: RAT, LIVER, S-9, AROCLOR 1254, Method: STANDARD PLATE) is reported as “inactive; negative” and the mutagenic call [2] is reported as “inactive; negative”. For the same compound, the mutagenic call [3] was “inactive; negative” and the mutagenic call [5] was “inactive; negative”.
With `Cc1cccc2cccc([N+](=O)[O-])c12` the mutagenic call [1] was “active; positive”.
